Results: ChEMBL document CHEMBL4813944 (Eur J Med Chem, 2021)
Active and inactive are the calls of the source. No cut-off for these calls is given here.

Experiments:
[1] = Cytotoxicity against human SH-SY5Y cells assessed as cell viability at 10 uM measured after 24 hrs by calcein-AM staining based fluorescence analysis; details: read-out: Activity
[2] = Cytotoxicity against human SH-SY5Y cells assessed as cell viability at 0.1 uM measured after 24 hrs by calcein-AM staining based fluorescence analysis; details: read-out: Activity
[3] = Cytotoxicity against human SH-SY5Y cells assessed as cell viability at 1 uM measured after 24 hrs by calcein-AM staining based fluorescence analysis; details: read-out: Activity
[4] = system: SH-SY5Y; experiment: Neuroprotective activity against salsolinol-induced neurotoxicity in human SH-SY5Y cells assessed as cell death at 0.5 uM measured after 24 hrs by PI staining based analysis (reference value: 100%); type: functional
[5] = system: SH-SY5Y; experiment: Inhibition of glutamate-induced apoptosis in human SH-SY5Y cells assessed as caspase 3/7 activity at 0.5 uM incubated for 1 hr using Ac-DEVD-AMC as substrate by fluorescence analysis (reference value: 100%); type: functional; set-up: scale not given: the % may be the effect or the level left
[6] = system: SH-SY5Y; experiment: Neuroprotective activity against salsolinol-induced neurotoxicity in human SH-SY5Y cells assessed as cell viability at 0.5 uM measured after 24 hrs by calcein-AM staining based fluorescence analysis (reference value: 70.49 +/-0.51%); type: functional; details: read-out: Activity
[7] = Inhibition of salsolinol-induced mPTP opening in human SH-SY5Y cells assessed as fold change in fluorescence intensity at 0.5 uM measured after 24 hrs by calcein AM/CoCl2 based fluorescence microscopic analysis (reference value: 0.49 +/-0.02); type: functional
[8] = system: SH-SY5Y; experiment: Neuroprotective activity against salsolinol-induced neurotoxicity in human SH-SY5Y cells assessed as cell viability at 1 uM measured after 24 hrs by calcein-AM staining based fluorescence analysis (reference value: 70.49 +/-0.51%); type: functional; details: read-out: Activity
[9] = system: SH-SY5Y; experiment: Neuroprotective activity against salsolinol-induced neurotoxicity in human SH-SY5Y cells assessed as reduction in cell death at 0.1 to 10 uM measured after 24 hrs by PI staining based analysis; type: functional; details: dose 0.1-10 µM
[10] = system: SH-SY5Y; experiment: Neuroprotective activity against salsolinol-induced neurotoxicity in human SH-SY5Y cells assessed as reduction in cell death at 0.1 to 1 uM measured after 24 hrs by PI staining based analysis; type: functional; details: dose 0.1-1 µM

| SMILES | viability at 24 h, 10 µM [1] [%] | viability at 24 h, 0.1 µM [2] [%] | viability at 24 h, 1 µM [3] [%] | Activity [4] [%] | Activity [5] [%] | viability at 0.5 µM [6] [%] | fold change (FC) [7] | viability at 1 µM [8] [%] | Activity [9] | Activity [10] |
| --- | --- | --- | --- | --- | --- | --- | --- | --- | --- | --- |
| CC1(C)CC[C@]23CC[C@]4(C)[C@H](CC[C@@H]5[C@@]6(C)CC(C#N)=C(O)C(C)(C)[C@@H]6CC[C@]54C)[C@H]2[C@H]1OC3 | 98.8 | 93.1 | 93.8 |  |  |  |  |  |  |  |
| CC(=O)OC[C@H]1O[C@@H](n2cc(CO)nn2)[C@H](OC(C)=O)[C@@H](OC(C)=O)[C@H]1OC(C)=O | 100 | 109 | 107 |  |  |  |  |  |  |  |
| C/C=C/C[C@@H](C)[C@@H](O)[C@H]1C(=O)N[C@@H](CC)C(=O)N(C)CC(=O)N(C)[C@@H](CC(C)C)C(=O)N[C@@H](C(C)C)C(=O)N(C)[C@@H](CC(C)C)C(=O)N[C@@H](C)C(=O)N[C@H](C)C(=O)N(C)[C@@H](CC(C)C)C(=O)N(C)[C@@H](CC(C)C)C(=O)N(C)[C@@H](C(C)C)C(=O)N1C [CYCLOSPORINE] |  |  |  | 74.5 | 89.1 | 99.3 | 0.67 |  |  |  |
| COC(=O)[C@]12CCC(C)(C)C[C@@H]1[C@H]1C=C[C@@H]3[C@@]4(C)CC(SC#N)C(=O)C(C)(C)[C@@H]4CC[C@@]3(C)[C@]1(C)CC2 (stereo partly drawn) | 99.2 | 100 | 107 |  |  |  |  |  |  |  |
| C=C(Cn1cc(-c2cccnc2)nn1)[C@@H]1CC[C@]2(C(=O)O)CC[C@]3(C)[C@H](CC[C@@H]4[C@@]5(C)CC[C@H](O)C(C)(C)[C@@H]5CC[C@]43C)[C@@H]12 | 133 | 103 | 116 |  |  |  |  | 81.7 | inactive |  |
| C=C(Cn1cc(-c2cccnc2)nn1)[C@@H]1CC[C@]2(C(=O)O)CC[C@]3(C)[C@H](CC[C@@H]4[C@@]5(C)CC[C@H](OC(C)=O)C(C)(C)[C@@H]5CC[C@]43C)[C@@H]12 | 57.6 | 106 | 124 |  |  |  |  | 84.3 |  | inactive |
